Assay results reported in publication PMC2788680 (Journal of medicinal chemistry, 2009).
Entries after “also recorded” stand apart in the source; their conditions may differ. Read-outs that look alike come from different tables or passages of the source. Numbered stars: 1 amine (or outer) side, 2 acyl side, 3 side chain; on linkers, the order of the positions; unused ones are H or OH. Bridge positions count the residues as written; N and C are the ends. Square brackets hold non-standard residues; d marks the D form. Peptide text beside a SMILES is read from it. 2Nal = N[C@@H](Cc1ccc2ccccc2c1)C(=O)O; CH2 = C([*:1])[*:2]

Assays:
DOR [1] = target: T1, DOR (Rattus norvegicus, UniProt P33533); format: cell-based
T1 sequence (P33533 whole entry): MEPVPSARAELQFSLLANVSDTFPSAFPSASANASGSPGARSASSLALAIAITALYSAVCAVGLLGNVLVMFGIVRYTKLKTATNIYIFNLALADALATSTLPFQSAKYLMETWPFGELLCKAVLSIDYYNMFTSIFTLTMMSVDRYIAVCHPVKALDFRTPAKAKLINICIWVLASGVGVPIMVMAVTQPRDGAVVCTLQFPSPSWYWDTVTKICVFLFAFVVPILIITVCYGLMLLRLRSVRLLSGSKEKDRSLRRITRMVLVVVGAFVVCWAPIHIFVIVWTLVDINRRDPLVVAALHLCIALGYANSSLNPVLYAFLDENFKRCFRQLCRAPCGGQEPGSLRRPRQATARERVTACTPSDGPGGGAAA

MOR = MOR (Rattus norvegicus, UniProt P33535); experiment: [35S]GTPγS binding assay, C6-MOR membranes; format: biochemical; details: [35S]GTPγS assay
Sequence of MOR (P33535 whole entry): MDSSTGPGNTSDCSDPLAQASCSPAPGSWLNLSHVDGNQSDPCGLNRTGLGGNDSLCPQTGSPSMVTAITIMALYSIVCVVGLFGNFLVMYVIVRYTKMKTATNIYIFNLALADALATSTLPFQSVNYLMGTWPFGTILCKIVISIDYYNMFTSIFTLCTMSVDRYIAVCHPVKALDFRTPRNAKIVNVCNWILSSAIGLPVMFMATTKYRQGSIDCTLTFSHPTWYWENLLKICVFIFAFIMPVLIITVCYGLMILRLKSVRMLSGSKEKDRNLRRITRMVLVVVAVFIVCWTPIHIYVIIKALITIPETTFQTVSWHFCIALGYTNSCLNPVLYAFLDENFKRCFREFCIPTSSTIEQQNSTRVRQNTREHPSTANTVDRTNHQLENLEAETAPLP

DOR [2] = target: T1, DOR; experiment: [35S]GTPγS binding assay, C6-DOR membranes; format: biochemical; details: [35S]GTPγS assay
KOR = KOR (Homo sapiens, UniProt P41145); experiment: [35S]GTPγS binding assay, CHO-KOR membranes; format: biochemical; details: [35S]GTPγS assay
Sequence of KOR (P41145 whole entry): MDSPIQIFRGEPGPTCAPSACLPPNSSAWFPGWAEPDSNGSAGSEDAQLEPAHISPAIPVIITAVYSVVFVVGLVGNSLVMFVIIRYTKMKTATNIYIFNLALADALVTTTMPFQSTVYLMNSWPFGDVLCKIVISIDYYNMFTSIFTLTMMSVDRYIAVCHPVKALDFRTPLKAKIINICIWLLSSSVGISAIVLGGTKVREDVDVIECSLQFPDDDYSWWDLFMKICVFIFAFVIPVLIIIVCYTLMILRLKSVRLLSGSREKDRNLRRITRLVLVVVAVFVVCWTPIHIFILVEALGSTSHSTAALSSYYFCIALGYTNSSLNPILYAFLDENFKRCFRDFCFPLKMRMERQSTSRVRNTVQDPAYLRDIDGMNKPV

DOR [3] = target: T1, DOR; experiment: Antagonism of SNC80-stimulated [35S]GTPγS binding in C6-DOR; format: biochemical

SMILES: C=CCN1C[C@H](C)N([C@H](c2ccc(C(=O)N(CC)CC)cc2)c2cccc(OC)c2)C[C@H]1C [SNC80, 4-[(R)-[(2S,5R)-4-allyl-2,5-dimethylpiperazin-1-yl](3-methoxyphenyl)methyl]-N,N-diethylbenzamide]
- calculated maximal inhibition of adenylyl cyclase (DOR [1]): 76 ± 8.8%

SMILES: Oc1ccc2c3c1O[C@H]1c4[nH]c5ccccc5c4C[C@@]4(O)[C@@H](C2)N(CC2CC2)CC[C@]314 [naltrindole]
- activity in adenylyl cyclase inhibition assay (DOR [1]): without effect; also recorded: did not inhibit cAMP accumulation

SMILES: NC(=O)[C@@H]1CSCSC[C@@H](NC(=O)[C@@H](N)Cc2ccc(O)cc2)C(=O)N[C@@H](Cc2ccccc2)C(=O)N[C@@H](Cc2ccc3ccccc3c2)C(=O)N1 [compound 9, Tyr-c(S-CH2-S)[D-Cys-Phe-2-Nal-Cys]NH2] (H-Y[dC]F[2Nal]C-NH2; linker 2-5 via CH2; N-terminus assumed)
- efficacy profile at MOR (MOR): full agonist
- efficacy profile at DOR (DOR [2]): essentially as antagonists
- efficacy profile at KOR (KOR): full agonist
- Kb (DOR [3]): 48 ± 9.5 nM
- activity in adenylyl cyclase inhibition assay (DOR [1]; C6-DOR cells): partial agonist
- calculated maximal inhibition of adenylyl cyclase (DOR [1]; calculated maximum, 5 µM forskolin-stimulated, C6-DOR cells): 43 ± 9.0%
